US11396517B1, “Exo-aza spiro inhibitors of menin-MLL interaction” (Janssen Pharmaceutica NV, priority 2017, dated 2022)
Where two headings read alike, the source gives them in different places.

Columns and labels:
[1] = system: MOLM14; assay: Proliferation assay B (spheroid assay) MOLM14; type: cell-based, human; details: MOLM14 cells, confluence at day 8, absolute IC50, read-out: (3b) Spheroid assay MOLM14 (IC50(μM)) Assay B
In short: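 IC50 derived from % effect on day-8 imaged confluence, scaled between DMSO-treated cells (high) and 1 μM staurosporine (low), using a variable-slope fit constrained 0-100%. Cells seeded as spheroids in ultra-low-attachment plates and exposed to compound for 8 days, 0.3% DMSO.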

[2] = target: T1, menin (Homo sapiens, UniProt O00255, T541A); assay: Menin/MLL homogenous time-resolved fluorescence (HTRF) assay; type: binding; details: location 2; read-out: (2) location 2 Menin HTRF assay (IC50 (nM))
T1 construct: Menin (a.a. 1-610-6×his tag)
T1 sequence (O00255 with tags, fused parts or gaps T541A): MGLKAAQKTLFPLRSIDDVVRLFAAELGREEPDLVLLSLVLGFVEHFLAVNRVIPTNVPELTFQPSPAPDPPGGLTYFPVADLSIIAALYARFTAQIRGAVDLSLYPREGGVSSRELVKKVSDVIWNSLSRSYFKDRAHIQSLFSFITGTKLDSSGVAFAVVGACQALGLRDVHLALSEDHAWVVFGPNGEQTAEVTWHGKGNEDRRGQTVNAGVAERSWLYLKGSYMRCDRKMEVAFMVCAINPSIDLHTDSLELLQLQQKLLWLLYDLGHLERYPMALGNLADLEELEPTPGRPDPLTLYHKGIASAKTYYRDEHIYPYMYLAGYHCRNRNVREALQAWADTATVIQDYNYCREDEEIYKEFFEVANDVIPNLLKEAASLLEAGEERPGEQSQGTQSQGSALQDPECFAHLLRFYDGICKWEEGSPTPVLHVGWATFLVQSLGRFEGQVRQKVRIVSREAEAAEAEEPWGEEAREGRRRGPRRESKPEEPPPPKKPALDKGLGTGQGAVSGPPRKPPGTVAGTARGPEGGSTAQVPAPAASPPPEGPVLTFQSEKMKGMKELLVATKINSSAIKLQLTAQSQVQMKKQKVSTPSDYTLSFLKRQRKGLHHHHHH
In short: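 Displacement of 75 nM FITC-MBM1 from terbium-cryptate-labeled His-tagged menin 1-610 ([…]) was read as the 520/490 nm HTRF ratio. Compound (11-point, 3-fold series) got 5 min with menin before peptide, then 15 min at ambient; 0.5% DMSO, Tris pH 7.5.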

[3] = system: MV-4-11; assay: Proliferation assay B (spheroid assay) MV-4-11; type: cell-based, human; details: Homo sapiens, MV4-11, 192 h, MV-4-11 cells, confluence at day 8, absolute IC50; read-out: (3b) Spheroid assay MV-4--11 (IC50(μM)) Assay B
Method: 3b) Proliferation Assay B
The anti-proliferative effect of menin/MLL protein/protein interaction inhibitor test compounds was assessed in human leukemia cell lines. The cell lines MV-4-11 and MOLM14 harbor MILL translocations and express the MILL fusion proteins MLL-AF4 and MLL-AF9, respectively, as well as the wildtype protein from the second allele. […] K562 was used as a control cell line containing two MLL wildtype alleles in order to exclude compounds that display general cytotoxic effects.
MV-4-11 and MOLM14 were cultured in RPMI-1640 (Sigma Aldrich) supplemented with 10% fetal bovine serum (HyClone), 2 mM L-glutamine (Sigma Aldrich) and 50 μg/ml gentamycin (Gibco). K562 were propagated in RPMI-1640 (Sigma Aldrich) supplemented with 20% fetal bovine serum (HyClone), 2 mM L-glutamine (Sigma Aldrich) and 50 μg/ml gentamycin (Gibco).
In order to assess the anti-proliferative effects, 1,500 MV-4-11, 300 MOLM14 cells or 750 K562 cells were seeded in 200 μl media per well in 96-well round bottom, ultra-low attachment plates (Costar, catalogue number 7007). Cell seeding numbers were chosen based on growth curves to ensure linear growth throughout the experiment. Test compounds were added at different concentrations and the DMSO content was normalized to 0.3%. Cells were incubated for 8 d at 37° C. and 5% CO2. Spheroid like growth was measured in real-time by live-cell imaging (IncuCyteZOOM, Essenbio, 4× objective) acquiring images at day 8. Confluence (%) as a measure of spheroid size was determined using an integrated analysis tool.
In order to determine the effect of the test compounds over time, the confluence in each well as a measure of spheroid size, was calculated. Confluence […] at the beginning of the experiment (t=0) was used as baseline for the calculation.
Absolute IC50 values were calculated as percent change in confluence as follows:
LC=Low Control: cells treated with 1 μM of the cytotoxic agent staurosporin
HC=High Control: Mean confluence (%) (DMSO treated cells) % Effect=100−(100*(Sample−LC)/(HC−LC))
To determine the IC50 a curve is fitted to the plot of % Effect vs Log 10 compound concentration using a sigmoidal fit with a variable slope and fixing the maximum to 100% and the minimum to 0%.

SMILES	IC50 ([1]; Homo sapiens, MOLM-14, 192 h)	IC50 [2]	IC50 [3]	IC50 [1]
N#CCc1ccc(N[C@H]2CC[C@@]3(CCN(c4ncnc5sc(CC(F)(F)F)cc45)C3)C2)cc1 (stereo in doubt) [Compound 145]	> 3.75 µM	22.6 nM	3.55 µM	–
CNc1nc(N2CC3(CC[C@H](NCc4cccc(-c5cc[nH]n5)c4)C3)C2)c2cc(CC(F)(F)F)sc2n1 (stereo in doubt) [Compound 122]	1.21 µM	49.3 nM	0.44 µM	–
CN1CCC(Oc2cc(NC3CC4(CCN(c5ncnc6sc(CC(F)(F)F)cc56)C4)C3)ccc2C#N)CC1 (stereo not drawn) [Compound 81]	0.65 µM	6.8 nM	0.43 µM	–
CN(C)CCNC(=O)c1ccc(NC2CC3(CCN(c4ncnc5sc(CC(F)(F)F)cc45)C3)C2)cc1 (single isomer, unassigned) [Compound 75]	–	1.3 nM	0.05 µM	0.46 µM
O=C(NCCO)c1ccc(NC2CC3(CCN(c4ncnc5sc(CC(F)(F)F)cc45)C3)C2)cc1 (single isomer, unassigned) [Compound 84]	0.56 µM	2.3 nM	0.06 µM	–
CNC(=O)c1ccc(NC2CCC3(CCN(c4ncnc5sc(CC(F)(F)F)cc45)C3)C2)cc1 (stereo not drawn) [Compound 133]	> 3.75 µM	4.1 nM	1.41 µM	–
CN1CCC(Nc2cc(NC3CC4(CCN(c5ncnc6sc(CC(F)(F)F)cc56)C4)C3)ccc2C#N)CC1 (stereo not drawn) [Compound 82]	0.93 µM	73.6 nM	1.14 µM	–
COc1nc(N2CC3(CC[C@H](NCc4cccc(-c5cc[nH]n5)c4)C3)C2)c2cc(CC(F)(F)F)sc2n1 (stereo in doubt) [Compound 116]	2.32 µM	30.6 nM	2.06 µM	–
CNc1nc(N2CC3(CC[C@@H](NCc4cccc(-c5cc[nH]n5)c4)C3)C2)c2cc(CC(F)(F)F)sc2n1 (stereo in doubt) [Compound 121]	1.6 µM	32.7 nM	0.98 µM	–

More lines, now with the values ahead:

IC50 ([1]; Homo sapiens, MOLM-14, 192 h)	IC50 [2]	IC50 [3]	IC50 [1]	SMILES
> 3.75 µM	97.3 nM	2.43 µM	–	CC(C)(NC1CCC2(C1)CN(c1ncnc3sc(CC(F)(F)F)cc13)C2)c1ccccc1 (racemic) [Compound 276]
1.97 µM	12.2 nM	1.09 µM	–	N#Cc1ccc(NC2CC3(CCN(c4ncnc5sc(CC(F)(F)F)cc45)C3)C2)cc1 (mixture of isomers) [Compound 164]
> 3.75 µM	34.7 nM	2.47 µM	–	FC(F)(F)Cc1cc2c(N3CCC4(CC(Nc5cccnc5)C4)C3)ncnc2s1 (single isomer, unassigned) [Compound 153]
> 3.75 µM	22.5 nM	> 3.75 µM	–	CNc1nc(N2CCC3(CC(Nc4ccc(C#N)cn4)C3)C2)c2cc(CC(F)(F)F)sc2n1 (mixture of isomers) [Compound 271]
> 3.75 µM	98.2 nM	> 3.75 µM	–	COc1nc(N2CCC3(CC(Nc4ccccc4)C3)C2)c2cc(CC(F)(F)F)sc2n1 (single isomer, unassigned) [Compound 267]
1.49 µM	32.6 nM	> 3.75 µM	–	Nc1nc(N2CCC3(CC(Nc4ccc5[nH]c(=O)oc5c4)C3)C2)c2cc(CC(F)(F)F)sc2n1 (mixture of isomers) [Compound 384]
> 3.75 µM	92.8 nM	> 3.75 µM	–	FC(F)(F)Cc1cc2c(N3CC4(CCC(NC5(c6ccccc6)CC5)C4)C3)ncnc2s1 (stereo not drawn) [Compound 282]
> 3.75 µM	97.7 nM	> 3.75 µM	–	O=c1[nH]c2ccc(NC3CCC4(C3)CN(c3ncnc5sc(CC(F)(F)F)cc35)C4)cc2o1 (stereo not drawn) [Compound 295]
> 3.75 µM	5.6 nM	2.64 µM	–	O=c1[nH]c2cc(NC3CC4(CCN(c5ncnc6sc(CC(F)(F)F)cc56)C4)C3)ccc2o1 (mixture of isomers) [Compound 308]
> 3.75 µM	23.7 nM	2.48 µM	–	O=c1[nH]c2cc(N[C@@H]3CCC4(C3)CN(c3ncnc5sc(CC(F)(F)F)cc35)C4)ccc2o1 (single isomer, unassigned) [Compound 286]
